Experimental data from DBAASP.
Converted amounts (≈) assume the structure as drawn. “And” between values parts separate entries of the source, which are not always exact repeats. Equal entries are not always repeated. Each block holds one molecule with its values, some of them ahead of it.

Tests used:
Assay in all cases: ≥ marks a high value that may be exact or a test limit, other limits are often not marked, values filed in µg/mL are converted to µM
[1] = tested on: Streptococcus pneumoniae BCRC 10794
[2] = tested on: Enterococcus faecium CGMCC 1.2334
[3] = tested on: Staphylococcus aureus PCM 2054
[4] = tested on: Lactobacillus acidophilus CGMCC 1.1854
[5] = tested on: Enterobacter cloacae CGMCC 1.58
[6] = tested on: Pseudomonas aeruginosa CGMCC 1.860
[7] = tested on: Pseudomonas aeruginosa PCM 499
[8] = tested on: Enterococcus faecalis CGMCC 1.595
[9] = tested on: Staphylococcus aureus PMC 1650
[10] = tested on: Candida tropicalis CCM 8264
[11] = tested on: Candida albicans PCM 2566
[12] = tested on: Streptococcus sanguinis CGMCC 1.2497
[13] = tested on: Staphylococcus epidermidis CICC 23664
[14] = tested on: Bacillus cereus AS1.126
[15] = tested on: Klebsiella pneumoniae subsp. pneumoniae CGMCC 1.176
[16] = tested on: Candida albicans CMCC 98001
[17] = tested on: Fusobacterium nucleatum CGMCC 1.2526
[18] = tested on: Candida parapsilosis CCM 8260
[19] = tested on: Bacillus subtilis
[20] = tested on: Staphylococcus aureus AS1.72
[21] = tested on: Escherichia coli PCM 2057
[22] = tested on: Escherichia coli AS1.349
[23] = tested on: Staphylococcus epidermidis PCM 521
[24] = tested on: Bacillus cereus
[25] = tested on: Streptococcus mutans CGMCC 1.2500
[26] = tested on: Streptococcus salivarius CGMCC 1.2498
[27] = tested on: Staphylococcus epidermidis PCM 2118
[28] = tested on: Candida krusei CCM 8271
[29] = tested on: Proteus mirabilis CICC 22931
[30] = tested on: Candida glabrata CCM 8270
[31] = tested on: Candida albicans CCM 8186
[32] = tested on: Escherichia coli DH5alpha
[33] = tested on: Bacillus subtilis ATCC 6633
[34] = tested on: Kocuria rhizophila DSM 348
[35] = tested on: Staphylococcus aureus DSM 1104
[36] = tested on: Escherichia coli DSM 1103
[37] = tested on: Micrococcus luteus DSM 1790
[38] = tested on: Staphylococcus aureus ATCC 15752
[39] = tested on: Micrococcus luteus ATCC 10240
[40] = tested on: Salmonella typhimurium KCTC 2370
[41] = tested on: Escherichia coli KCTC 2223
[42] = tested on: Pseudomonas aeruginosa PAO1
[43] = tested on: Pseudomonas aeruginosa 919
[44] = tested on: Pseudomonas aeruginosa 910
[45] = tested on: Pseudomonas aeruginosa 253
[46] = tested on: Salmonella enterica subsp. enterica serovar Enteritidis ATCC 13076
[47] = tested on: Pseudomonas putida ATCC 17426
[48] = tested on: Streptococcus mutans ATCC 25175
[49] = tested on: Candida albicans ATCC 10231
[50] = tested on: Escherichia coli ATCC 27325
[51] = tested on: Bacillus subtilis ATCC 62037
[52] = tested on: Saccharomyces cerevisiae ATCC 44774

Compound: CC[C@H](C)[C@H](NC(C)=O)C(=O)N[C@@H](Cc1cnc[nH]1)C(=O)NCC(=O)N[C@@H](CC(C)C)C(=O)N[C@H](C(N)=O)C(C)C [IHGLV]
MIC [1]: ≥ 186 µM

Compound: CC[C@H](C)[C@H](NC(=O)[C@H](CCCCN)NC(=O)CNC(=O)[C@H](C)NC(=O)[C@@H](NC(=O)[C@H](CCCCN)NC(=O)[C@H](C)NC(=O)[C@@H](NC(=O)[C@H](CCCCN)NC(=O)CNC(=O)[C@H](C)NC(=O)[C@@H](NC(=O)[C@H](CCCCN)NC(=O)[C@H](C)NC(=O)[C@@H](NC(=O)[C@H](CCCCN)NC(=O)CNC(=O)[C@H](C)NC(=O)[C@@H](NC(=O)[C@@H](N)CCCCN)[C@@H](C)CC)[C@@H](C)CC)[C@@H](C)CC)[C@@H](C)CC)[C@@H](C)CC)C(=O)N[C@@H](C)C(=O)O [KIAGKIAKIAGKIAKIAGKIA]
MIC [32]: 7.75 µM (≈ 16 µg/mL)
MIC [33]: 3.88 µM (≈ 8 µg/mL)
MIC [34]: ≥ 62 µM
MIC [35]: ≥ 62 µM
MIC [36]: 3.88 µM (≈ 8 µg/mL)
MIC [37]: 7.75 µM (≈ 16 µg/mL)

Compound: CC[C@H](C)[C@H](NC(=O)[C@@H]1CCCN1C(=O)[C@H](Cc1c[nH]c2ccccc12)NC(=O)[C@H](CCC(N)=O)NC(=O)[C@H](CCCN=C(N)N)NC(=O)[C@@H](NC(=O)[C@@H](NC(=O)[C@@H](N)CCCN=C(N)N)C(C)C)C(C)C)C(=O)NCC(=O)N[C@@H](CCCN=C(N)N)C(=O)N[C@H](C(=O)N[C@H](C(=O)N[C@@H](CCCN=C(N)N)C(=O)N[C@@H](CCCN=C(N)N)C(=O)N[C@H](C(=O)N[C@H](C(=O)N[C@@H](CCCN=C(N)N)C(=O)N[C@@H](CCCN=C(N)N)C(=O)N[C@H](C(=O)N[C@H](C(=O)N[C@@H](CCCN=C(N)N)C(=O)N[C@@H](Cc1ccc(O)cc1)C(=O)O)C(C)C)C(C)C)C(C)C)C(C)C)C(C)C)C(C)C [RVVRQWPIGRVVRRVVRRVVRY]
MIC [46]: 0.713 µM (≈ 2 µg/mL)
MIC [47]: 0.713 µM (≈ 2 µg/mL)
MIC [38]: 0.713 µM (≈ 2 µg/mL)
MIC [48]: 0.713 µM (≈ 2 µg/mL)
MIC [49]: 1.43 µM (≈ 4 µg/mL)
MIC [50]: 1.43 µM (≈ 4 µg/mL)
MIC [51]: 0.713 µM (≈ 2 µg/mL)
MIC [52]: 0.356 µM (≈ 1 µg/mL)

Results, then the molecule that gave them:

MIC [2]: 5 µM (≈ 7.76 µg/mL)
MIC [3]: ≥ 64.4 µM
MIC [4]: 3.13 µM (≈ 4.86 µg/mL)
MIC [5]: ≥ 100 µM
MIC [6]: 6.25 µM (≈ 9.7 µg/mL)
MIC [7]: 16.1 µM (≈ 25 µg/mL)
MIC [8]: 3.13 µM (≈ 4.86 µg/mL)
MIC [9]: ≥ 32.2 µM
MIC [10]: 1.29 µM (≈ 2 µg/mL)
MIC [11]: ≥ 32.2 µM
MIC [12]: 6.25 µM (≈ 9.7 µg/mL)
MIC [13]: 4.69 µM (≈ 7.28 µg/mL)
MIC [14]: 6.25 µM (≈ 9.7 µg/mL)
MIC [15]: ≥ 100 µM
MIC [16]: 6.25 µM (≈ 9.7 µg/mL)
MIC [17]: 4.69 µM (≈ 7.28 µg/mL)
MIC [18]: 5.02 µM and 8.05 µM
MIC [19]: 5.02 µM (≈ 7.8 µg/mL)
MIC [20]: 5 µM (≈ 7.76 µg/mL)
MIC [21]: ≥ 80.5 µM
MIC [22]: 3.13 µM (≈ 4.86 µg/mL)
MIC [23]: 4.02 µM (≈ 6.25 µg/mL)
MIC [24]: ≥ 32.2 µM
MIC [25]: 3.13 µM (≈ 4.86 µg/mL)
MIC [26]: 6.25 µM (≈ 9.7 µg/mL)
MIC [27]: 5.02 µM and 4.02 µM
MIC [28]: 5.02 µM and 8.05 µM
MIC [29]: ≥ 100 µM
MIC [30]: 20.2 µM and 20.1 µM
MIC [31]: 20.2 µM (≈ 31.3 µg/mL)
Compound: CC[C@H](C)[C@H](N)C(=O)N[C@@H](CCCCN)C(=O)N[C@@H](CCCCN)C(=O)N[C@H](C(=O)N[C@@H](CC(C)C)C(=O)N[C@@H](CO)C(=O)N[C@@H](CCCCN)C(=O)N[C@H](C(=O)N[C@@H](CCCCN)C(=O)N[C@@H](CCCCN)C(=O)N[C@@H](CC(C)C)C(=O)N[C@@H](CC(C)C)C(=O)N[C@@H](CCCCN)C(N)=O)[C@@H](C)CC)[C@@H](C)CC [IKKILSKIKKLLK]

MIC [38]: 1 µM (≈ 1.89 µg/mL)
MIC [39]: 1 µM (≈ 1.89 µg/mL)
MIC [40]: 8 µM (≈ 15.1 µg/mL)
MIC [41]: 16 µM (≈ 30.2 µg/mL)
Compound: CC(C)C[C@H](NC(=O)[C@H](CCCCN)NC(=O)[C@H](CCC(N)=O)NC(=O)[C@H](CCCCN)NC(=O)[C@H](CC(C)C)NC(=O)[C@H](CC(C)C)NC(=O)[C@H](CCC(N)=O)NC(=O)[C@H](CC(C)C)NC(=O)[C@H](CC(C)C)NC(=O)[C@@H]1CCCN1C(=O)[C@H](CCCN=C(N)N)NC(=O)[C@H](CC(C)C)NC(=O)[C@H](CC(C)C)NC(=O)[C@@H](N)CCCN=C(N)N)C(=O)N[C@@H](CCCN=C(N)N)C(=O)O [RLLRPLLQLLKQKLR]

MIC [42]: 16 µM (≈ 25.5 µg/mL)
MIC [43]: ≥ 32 µM
MIC [44]: ≥ 32 µM
MIC [45]: 16 µM (≈ 25.5 µg/mL)
Compound: CC[C@H](C)[C@H](NC(=O)[C@H](CCCN=C(N)N)NC(=O)[C@H](Cc1c[nH]c2ccccc12)NC(=O)[C@H](CC(C)C)NC(=O)[C@@H](N)CCCN=C(N)N)C(=O)N[C@H](C(=O)N[C@H](C(=O)N[C@H](C(=O)N[C@@H](CCCN=C(N)N)C(=O)N[C@H](C(=O)N[C@@H](CCCCN)C(=O)N[C@@H](CCCN=C(N)N)C(N)=O)C(C)C)[C@@H](C)CC)C(C)C)C(C)C [RLWRIVVIRVKR]
